This note sets out measurements from US9932331B2, “Phenyl tetrahydroisoquinoline compound substituted with heteroaryl” (TAISHO PHARMACEUTICAL CO., LTD, priority 2014, dated 2018).

The structures appear in SMILES notation. Counter-ions that a name gives are not always drawn.

The experiment addresses T1, human NHE3 (Homo sapiens, UniProt P48764).
T1 sequence (P48764 26-834): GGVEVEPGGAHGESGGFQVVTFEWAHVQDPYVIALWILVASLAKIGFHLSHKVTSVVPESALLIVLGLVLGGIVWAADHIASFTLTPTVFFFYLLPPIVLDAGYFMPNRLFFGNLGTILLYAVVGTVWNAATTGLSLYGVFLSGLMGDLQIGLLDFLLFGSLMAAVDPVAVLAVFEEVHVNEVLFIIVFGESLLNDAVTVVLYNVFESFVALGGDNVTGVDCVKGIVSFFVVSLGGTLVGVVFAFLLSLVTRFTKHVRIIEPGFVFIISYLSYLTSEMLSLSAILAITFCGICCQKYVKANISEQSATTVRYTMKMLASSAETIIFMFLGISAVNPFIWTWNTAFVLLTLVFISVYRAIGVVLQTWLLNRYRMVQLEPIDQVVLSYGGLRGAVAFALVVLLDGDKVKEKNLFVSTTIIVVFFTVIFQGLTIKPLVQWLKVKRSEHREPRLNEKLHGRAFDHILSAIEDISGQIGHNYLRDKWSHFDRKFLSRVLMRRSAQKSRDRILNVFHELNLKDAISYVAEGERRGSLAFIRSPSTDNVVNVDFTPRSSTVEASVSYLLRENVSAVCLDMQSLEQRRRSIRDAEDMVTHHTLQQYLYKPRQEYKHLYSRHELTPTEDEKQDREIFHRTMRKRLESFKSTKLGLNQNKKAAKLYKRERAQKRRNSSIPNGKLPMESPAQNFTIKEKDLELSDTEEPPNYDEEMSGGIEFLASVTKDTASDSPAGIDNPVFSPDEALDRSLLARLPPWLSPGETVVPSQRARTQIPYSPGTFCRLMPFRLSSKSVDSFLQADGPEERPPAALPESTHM
The experiment is described as follows: NHE3 inhibition test (recovery of intracellular pH in cell line stably expressing human NHE3). The format is cell-based. Particulars: OK cells deficient in endogenous NHE stably expressing human NHE3; BCECF fluorescence, initial rate of pH recovery; read-out: human NHE3 inhibitory activity IC50. As for the experimental part: (1) Preparation of Cell Line Deficient in Endogenous NHE
The cell line deficient in endogenous NHE was prepared according to the method of Jacques Pouyssegur et al. (Proc. Natl. Acad. Sci. USA. 1984, Vol. 81, 4833-4837) using opossum kidney (OK) cells (ATCC).
(2) Preparation of Expression Plasmid and Cell Line Stably Expressing Human NHE3
The expression plasmid was constructed by inserting a human NHE3 (SLC9A3, Accession No. NM_004174) cDNA sequence (GeneCopoeia, Inc.) into a pcDNA3.2/V5-DEST vector (Life Technologies Corp.).
The OK cells deficient in endogenous NHE were transfected with the constructed human NHE3 expression plasmid to prepare stably expressing cells. The transfection was carried out by electroporation using a Nucleofector 2b device (Lonza Group Ltd.). A stably expressing cell line was selected in medium supplemented with 500 μg/mL Geneticin (Life Technologies Corp.) and isolated.
NHE3 activity measurement method using cell: The activity was determined by using the NHE3-mediated recovery of intracellular pH occurring after intracellular acidification, as an index. The intracellular pH was measured by a partial modification of the pH-sensitive fluorescent indicator method reported by Tsien et al. (Proc. Natl. Acad. Sci. USA., 1984, 81, 7436-7440).
The cell line stably expressing human NHE3 was inoculated on a poly-D-lysine-coated 96-well plate (Greiner Bio-one) and cultured overnight. […] Then, Hank's balanced salt buffer solution containing 0.25 μM BCECF-AM (Dojindo Laboratories) was added to the cells, which were then incubated at 37° C. for 30 minutes. […] The cells thus incubated in the NH4Cl buffer solution were washed with NH4Cl-free buffer solution (133.8 mM choline chloride, […], 5 mM glucose, 4.7 mM KCl, 1.25 mM CaCl2, 1.25 mM MgCl2, 0.97 mM K2HPO4, 0.23 mM KH2PO4, pH 7.4) to decrease the intracellular pH. After the washing step, 70 μL of a test compound solution prepared with the NH4Cl-free buffer solution was added to the cells, and 70 iμL of sodium ion-containing buffer solution (133.8 mM NaCl, 10 mM HEPES, 5 mM glucose, 4.7 mM KCl, 1.25 mM CaCl2, 1.25 mM MgCl2, 0.97 mM Na2HPO4, 0.23 mM NaH2PO4, pH 7.4) was added thereto in a measurement system FDSS6000 (Hamamatsu Photonics K.K.) to start the recovery of pH. The recovery of intracellular pH was monitored using BCECF fluorescence (excitation wavelength: 480 nm, fluorescence wavelength: 520 to 560 nm), and the initial rate of the pH recovery was plotted. The recovery of pH without test compound was defined as the maximum recovery, and the test compound concentration necessary to inhibit 50% of the maximum recovery was calculated as an IC50 value.
For `CN1Cc2c(Cl)cc(Cl)cc2[C@H](c2cccc(-c3cc(OCCOCCOCCNC(=O)NCCCCNC(=O)NCCOCCOCCOc4cc(-c5cccc([C@@H]6CN(C)Cc7c(Cl)cc(Cl)cc76)c5)ncn4)ncn3)c2)C1` [Example 7-12, 1,1′-Butane-1,4-diylbis {3-[2-(2-{2-[(6-{3-[(4S)-6,8-dichloro-2-methyl-1,2,3,4-tetrahydroisoquinolin-4-yl]phenyl}pyrimidin-4-yl)oxy]ethoxy}ethoxy)ethyl]urea} tetrahydrochloride], the IC50 – broadly, the concentration at which inhibition is half-maximal – came to 7.5 nM.

Regarding `CN1Cc2c(Cl)cc(Cl)cc2[C@H](c2cccc(-c3cnnc(NCCOCCOCCNC(=O)NCCCCNC(=O)NCCOCCOCCNc4cc(-c5cccc([C@@H]6CN(C)Cc7c(Cl)cc(Cl)cc76)c5)cnn4)c3)c2)C1` [Example 7-13, 1,1′-Butane-1,4-diylbis {3-[2-(2-(2-{2-[(5-{3-[(4S)-6,8-dichloro-2-methyl-1,2,3,4-tetrahydroisoquinolin-4-yl]phenyl}pyridazin-3-yl)amino]ethoxy}ethoxy)ethyl]urea}tetrahydrochloride], the IC50 is 12 nM.

Regarding `CN1Cc2c(Cl)cc(Cl)cc2[C@H](c2cccc(-c3cc(NCCOCCOCCNC(=O)Nc4ccc(NC(=O)NCCOCCOCCNc5cc(-c6cccc([C@@H]7CN(C)Cc8c(Cl)cc(Cl)cc87)c6)ncn5)cc4)ncn3)c2)C1` [Example 7-14, 1,1′-Benzene-1,4-diylbis {3-[2-(2-{2-[(6-{3-[(4S)-6,8-dichloro-2-methyl-1,2,3,4-tetrahydroisoquinolin-4-yl]phenyl}pyrimidin-4-yl)amino]ethoxy}ethoxy)ethyl]urea} trifluoroacetate], the IC50 was 13.9 nM.

For the compound `CN1Cc2c(Cl)cc(Cl)cc2[C@H](c2cccc(-c3ccc(NCCOCCOCCOCCNC(=O)NCCCCNC(=O)NCCOCCOCCOCCNc4ccc(-c5cccc([C@@H]6CN(C)Cc7c(Cl)cc(Cl)cc76)c5)cn4)nc3)c2)C1` [Example 7-17, 1,1′-Butane-1,4-diylbis(3-{2-[2-(2-{2-[(5-{3-[(4S)-6,8-dichloro-2-methyl-1,2,3,4-tetrahydroisoquinolin-4-yl]phenyl}pyridin-2-yl)amino]ethoxy}ethoxy)ethoxy]ethyl}urea) hydrochloride], the 50% inhibitory concentration (IC50) turned out to be 4.4 nM.

Take `CN1Cc2c(Cl)cc(Cl)cc2[C@H](c2cccc(-c3cncc(NCCOCCOCCNC(=O)NCCCCNC(=O)NCCOCCOCCNc4cncc(-c5cccc([C@@H]6CN(C)Cc7c(Cl)cc(Cl)cc76)c5)n4)n3)c2)C1` [Example 7-20, 1,1′-Butane-1,4-diylbis{3-[2-(2-{2-[(6-{3-[(4S)-6,8-dichloro-2-methyl-1,2,3,4-tetrahydroisoquinolin-4-yl]phenyl}pyrazin-2-yl)amino]ethoxy}ethoxy)ethyl]urea}pentahydrochloride]: the IC50 is 7.5 nM.

As to `CN1Cc2c(Cl)cc(Cl)cc2[C@H](c2cccc(-c3nnc(CCOCCOCCNC(=O)NCCCCNC(=O)NCCOCCOCCc4nnc(-c5cccc([C@@H]6CN(C)Cc7c(Cl)cc(Cl)cc76)c5)[nH]4)[nH]3)c2)C1` [Example 7-21, 1,1′-Butane-1,4-diylbis[3-(2-{2-[2-(5-{3-[(4S)-6,8-dichloro-2-methyl-1,2,3,4-tetrahydroisoquinolin-4-yl]phenyl}-4H-1,2,4-triazol-3-yl)ethoxy]ethoxy}ethyl)urea]diformate], the IC50 was 3.8 nM.

As for `CN1Cc2c(Cl)cc(Cl)cc2[C@H](c2cccc(-c3nnc(CCOCCOCCOCCNC(=O)NCCCCNC(=O)NCCOCCOCCOCCc4nnc(-c5cccc([C@@H]6CN(C)Cc7c(Cl)cc(Cl)cc76)c5)[nH]4)[nH]3)c2)C1` [Example 7-22, 1,1′-Butane-1,4-diylbis {3-[2-(2-{2-[2-(5-{3-[(4S)-6,8-dichloro-2-methyl-1,2,3,4-tetrahydroisoquinolin-4-yl]phenyl}-4H-1,2,4-triazol-3-yl)ethoxy]ethoxy}ethoxy)ethyl]urea} diformate], the IC50 was 5.7 nM.

Take `CN1Cc2c(Cl)cc(Cl)cc2[C@H](c2cccc(-c3nnc(CCOCCOCCNC(=O)NCCCCNC(=O)NCCOCCOCCc4nnc(-c5cccc([C@@H]6CN(C)Cc7c(Cl)cc(Cl)cc76)c5)o4)o3)c2)C1` [Example 7-23, 1,1′-Butane-1,4-diylbis[3-(2-{2-[2-(5-{3-[(4S)-6,8-dichloro-2-methyl-1,2,3,4-tetrahydroisoquinolin-4-yl]phenyl}-1,3,4-oxadiazol-2-yl)ethoxy]ethoxy}ethyl)urea]tetraformate]: the IC50 is 5.5 nM.

`CN1Cc2c(Cl)cc(Cl)cc2[C@H](c2cccc(-c3cc(OCCOCCOCCOCCNC(=O)Nc4ccc(NC(=O)NCCOCCOCCOCCOc5cc(-c6cccc([C@@H]7CN(C)Cc8c(Cl)cc(Cl)cc87)c6)ncn5)cc4)ncn3)c2)C1` [Example 7-25, 1,1′-Benzene-1,4-diylbis(3-{2-[2-(2-{2-[(6-{3-[(4S)-6,8-dichloro-2-methyl-1,2,3,4-tetrahydroisoquinolin-4-yl]phenyl}pyrimidin-4-yl)oxy]ethoxy}ethoxy)ethoxy]ethyl}urea) hydrochloride]: the IC50 turned out to be 13.6 nM.

For `CN1Cc2c(Cl)cc(Cl)cc2[C@H](c2cccc(-c3cn(CCOCCOCCOCCNC(=O)NCCOCCOCCNC(=O)NCCOCCOCCOCCn4cc(-c5cccc([C@@H]6CN(C)Cc7c(Cl)cc(Cl)cc76)c5)nn4)nn3)c2)C1` [Example 7-26, 1,1′-[Ethane-1,2-diylbis(oxyethane-2,1-diyl)]bis {3-[2-(2-{2-[2-(4-{3-[(4S)-6,8-dichloro-2-methyl-1,2,3,4-tetrahydroisoquinolin-4-yl]phenyl}-1H-1,2,3-triazol-1-yl)ethoxy]ethoxy}ethoxy)ethyl]urea}hydrochloride], the IC50 amounted to 5.2 nM.

On to `CN1Cc2c(Cl)cc(Cl)cc2[C@H](c2cccc(-c3cn(CCOCCOCCOCCNC(=O)NCCCCCCNC(=O)NCCOCCOCCOCCn4cc(-c5cccc([C@@H]6CN(C)Cc7c(Cl)cc(Cl)cc76)c5)nn4)nn3)c2)C1` [Example 7-27, 1,1′-Hexane-1,6-diylbis {3-[2-(2-{2-[2-(4-{3-[(4S)-6,8-dichloro-2-methyl-1,2,3,4-tetrahydroisoquinolin-4-yl]phenyl}-1H-1,2,3-triazol-1-yl)ethoxy]ethoxy}ethoxy)ethyl]urea}hydrochloride], for which the IC50 came out at 11.3 nM.

Consider `CN1Cc2c(Cl)cc(Cl)cc2[C@H](c2cccc(-c3cn(CCOCCOCCOCCNC(=O)NCCCCCCCCNC(=O)NCCOCCOCCOCCn4cc(-c5cccc([C@@H]6CN(C)Cc7c(Cl)cc(Cl)cc76)c5)nn4)nn3)c2)C1` [Example 7-28, 1,1′-Octane-1,8-diylbis {3-[2-(2-{2-[2-(4-{3-[(4S)-6,8-dichloro-2-methyl-1,2,3,4-tetrahydroisoquinolin-4-yl]phenyl}-1H-1,2,3-triazol-1-yl)ethoxy]ethoxy}ethoxy)ethyl]urea}hydrochloride], for which the IC50 amounted to 7.3 nM.
